Patent publication US10457709B2, “Antimicrobial peptides, their variants and uses” (priority 2015, dated 2019)
Converted amounts (≈) assume the structure as drawn. Read-outs that look alike come from different tables or passages of the source. Square brackets hold non-standard residues; d marks the D form. Peptide text beside a SMILES is read from it.

Columns and labels:
[1] = tested on: C. quillermondiae clinical strains; assay: MIC, clinical yeast strains; format: cell-based, Candida quillermondiae; design: unit: μg/ml; details: C. quillermondiae clinical yeast strain 1
How it was run: (§1)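 Broth microdilution in Mueller Hinton broth, inoculum adjusted to 5.0×10^5 cfu/ml, peptides tested at 0.125 to 128 μg/ml, 37° C for 20 to 24 hours. Yeast assays were run in potato dextrose broth. MIC was taken as the lowest concentration with no visible growth.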

[2] = tested on: C. glabrata clinical strains; assay: MIC, clinical yeast strains; format: cell-based, Candida glabrata; design: unit: µg/ml
How it was run: as §1

[3] = tested on: C. parapsilosis clinical strains; assay: MIC, clinical yeast strains; format: cell-based, Candida parapsilosis; design: unit: µg/ml
How it was run: as §1

[4] = tested on: Escherichia coli clinical strains; format: cell-based; details: for Minimum inhibitory concentration: microdilution, Muller Hinton broth-cation adjusted, 0.02% BSA, 0.2% acetic acid
How it was run: as §1

[5] = tested on: Klebsiella pneumoniae clinical strains; format: cell-based; details: microdilution, Muller Hinton broth-cation adjusted, 0.02% BSA, 0.2% acetic acid
How it was run: as §1

[6] = tested on: Pseudomonas aeruginosa clinical strains; format: cell-based; details: microdilution, Muller Hinton broth-cation adjusted, 0.02% BSA, 0.2% acetic acid
How it was run: as §1

[7] = tested on: all the bacteria and yeasts tested; format: cell-based
How it was run: as §1

[8] = tested on: Acinetobacter johnsonii clinical strains; format: cell-based; details: Acinetobacter johnsonii clinical strain 1; microdilution, Muller Hinton broth-cation adjusted, 0.02% BSA, 0.2% acetic acid
How it was run: as §1

[9] = tested on: Candida albicans clinical strains; assay: MIC, clinical yeast strains; format: cell-based; design: unit: μg/ml
How it was run: as §1

[10] = tested on: Staphylococcus aureus clinical strains; format: cell-based; design: Minimum inhibitory concentration: unit: μg/ml; details: microdilution, Muller Hinton broth-cation adjusted, 0.02% BSA, 0.2% acetic acid
How it was run: as §1

[11] = tested on: Serratia marcescens clinical strains; format: cell-based; design: Minimum inhibitory concentration: unit: μg/ml; details: microdilution, Muller Hinton broth-cation adjusted, 0.02% BSA, 0.2% acetic acid
How it was run: as §1

[12] = tested on: Acinetobacter baumannii clinical strains; format: cell-based; design: Minimum inhibitory concentration: unit: μg/ml; details: microdilution, Muller Hinton broth-cation adjusted, 0.02% BSA, 0.2% acetic acid
How it was run: as §1

[13] = tested on: Proteus mirabilis clinical strains; format: cell-based; design: Minimum inhibitory concentration: unit: μg/ml; details: microdilution, Muller Hinton broth-cation adjusted, 0.02% BSA, 0.2% acetic acid
How it was run: as §1

[14] = tested on: Enterobacter cloacae clinical strains; format: cell-based; design: Minimum inhibitory concentration: unit: μg/ml; details: microdilution, Muller Hinton broth-cation adjusted, 0.02% BSA, 0.2% acetic acid
How it was run: as §1

[15] = tested on: Streptococcus pneumoniae clinical strains; format: cell-based; design: Minimum inhibitory concentration: unit: μg/ml; details: microdilution, Muller Hinton broth-cation adjusted, 0.02% BSA, 0.2% acetic acid
How it was run: as §1

In the case of `CC(C)C[C@@H](NC(=O)[C@H](N)CCCNC(=N)N)C(=O)N[C@H](CCCCN)C(=O)N[C@H](CCCNC(=N)N)C(=O)N[C@H](Cc1c[nH]c2ccccc12)C(=O)N[C@H](CCCNC(=N)N)C(=O)N[C@H](CC(C)C)C(=O)N[C@H](Cc1ccccc1)C(=O)N[C@H](CCCNC(=N)N)C(=O)N[C@H](CCCCN)C(=O)N[C@H](CCCNC(=N)N)C(=O)O` [Chain306D] (H-[dR][dL][dK][dR][dW][dR][dL][dF][dR][dK][dR]-OH), the Minimum inhibitory concentration [1] was 4, the Minimum inhibitory concentration ([2]; C. glabrata clinical yeast strain 1) was 8 and the Minimum inhibitory concentration ([2]; C. glabrata clinical yeast strain 2) was 8. It also gave a Minimum inhibitory concentration ([2]; C. glabrata clinical yeast strain 3) of 16, a Minimum inhibitory concentration ([2]; C. glabrata clinical yeast strain 4) of 32 and a Minimum inhibitory concentration ([3]; C. parapsilosis clinical yeast strain 1) of 8. The Minimum inhibitory concentration ([3]; C. parapsilosis clinical yeast strain 2) was 16, the Minimum inhibitory concentration ([3]; C. parapsilosis clinical yeast strain 3) was 16 and the Minimum inhibitory concentration ([3]; C. parapsilosis clinical yeast strain 4) was 4. The Minimum inhibitory concentration ([4]; Escherichia coli clinical strain 1) was 1, the Minimum inhibitory concentration ([4]; Escherichia coli clinical strain 2) was 2 and the Minimum inhibitory concentration ([4]; Escherichia coli clinical strain 3) was 2. For the same compound, the Minimum inhibitory concentration ([4]; Escherichia coli clinical strain 4) was 2, the Minimum inhibitory concentration ([4]; Escherichia coli clinical strain 5) was 2 and the “MIC against E. coli” value ([4]; clinical strains) was 1 µg/mL (≈ 0.619 µM). It also gave a Minimum inhibitory concentration ([5]; Klebsiella pneumoniae clinical strain 1) of 128, a Minimum inhibitory concentration ([5]; Klebsiella pneumoniae clinical strain 2) of over 128 and a Minimum inhibitory concentration ([5]; Klebsiella pneumoniae clinical strain 3) of over 128. It also gave a Minimum inhibitory concentration ([5]; Klebsiella pneumoniae clinical strain 4) of 64, a Minimum inhibitory concentration ([5]; Klebsiella pneumoniae clinical strain 5) of 64 and a Minimum inhibitory concentration ([6]; Pseudomonas aeruginosa clinical strain 1) of 128. The Minimum inhibitory concentration ([6]; Pseudomonas aeruginosa clinical strain 2) was over 128, the Minimum inhibitory concentration ([6]; Pseudomonas aeruginosa clinical strain 3) was 128 and the Minimum inhibitory concentration ([6]; Pseudomonas aeruginosa clinical strain 4) was over 128. The Minimum inhibitory concentration ([6]; Pseudomonas aeruginosa clinical strain 5) was 128, the “MIC against the rest of the bacterial strains” value [7] was over 32 µg/mL and the Minimum inhibitory concentration [8] was 16. The Minimum inhibitory concentration ([9]; Candida albicans clinical yeast strain 1) was 16, the Minimum inhibitory concentration ([9]; Candida albicans clinical yeast strain 2) was 8 and the Minimum inhibitory concentration ([9]; Candida albicans clinical yeast strain 3) was 8. The Minimum inhibitory concentration ([9]; Candida albicans clinical yeast strain 4) was 16, the Minimum inhibitory concentration ([9]; Candida albicans clinical yeast strain 5) was 16 and the Minimum inhibitory concentration ([10]; Staphylococcus aureus clinical strain 1) was 16. The Minimum inhibitory concentration ([10]; Staphylococcus aureus clinical strain 2) was 32, the Minimum inhibitory concentration ([10]; Staphylococcus aureus clinical strain 3) was 32 and the Minimum inhibitory concentration ([10]; Staphylococcus aureus clinical strain 4) was 16. For the same compound, the Minimum inhibitory concentration ([10]; Staphylococcus aureus clinical strain 5) was 8, the Minimum inhibitory concentration ([11]; Serratia marcescens clinical strain 1) was over 128 and the Minimum inhibitory concentration ([11]; Serratia marcescens clinical strain 2) was over 128. For the same compound, the Minimum inhibitory concentration ([11]; Serratia marcescens clinical strain 3) was over 128, the Minimum inhibitory concentration ([11]; Serratia marcescens clinical strain 4) was over 128 and the Minimum inhibitory concentration ([11]; Serratia marcescens clinical strain 5) was over 128. For the same compound, the Minimum inhibitory concentration ([12]; Acinetobacter baumannii clinical strain 1) was 16, the Minimum inhibitory concentration ([12]; Acinetobacter baumannii clinical strain 2) was 32 and the Minimum inhibitory concentration ([12]; Acinetobacter baumannii clinical strain 3) was 16. It also gave a Minimum inhibitory concentration ([12]; Acinetobacter baumannii clinical strain 4) of 16, a Minimum inhibitory concentration ([12]; Acinetobacter baumannii clinical strain 5) of 8 and a Minimum inhibitory concentration ([13]; Proteus mirabilis clinical strain 1) of over 128. For the same compound, the Minimum inhibitory concentration ([13]; Proteus mirabilis clinical strain 2) was over 128, the Minimum inhibitory concentration ([13]; Proteus mirabilis clinical strain 3) was over 128 and the Minimum inhibitory concentration ([13]; Proteus mirabilis clinical strain 4) was over 128. For the same compound, the Minimum inhibitory concentration ([13]; Proteus mirabilis clinical strain 5) was over 128, the Minimum inhibitory concentration ([14]; Enterobacter cloacae clinical strain 1) was 64 and the Minimum inhibitory concentration ([14]; Enterobacter cloacae clinical strain 2) was 64. For the same compound, the Minimum inhibitory concentration ([14]; Enterobacter cloacae clinical strain 3) was 32, the Minimum inhibitory concentration ([14]; Enterobacter cloacae clinical strain 4) was 16 and the Minimum inhibitory concentration ([14]; Enterobacter cloacae clinical strain 5) was 16. It also gave a Minimum inhibitory concentration ([15]; Streptococcus pneumoniae clinical strain 1) of 64, a Minimum inhibitory concentration ([15]; Streptococcus pneumoniae clinical strain 2) of 64 and a Minimum inhibitory concentration ([15]; Streptococcus pneumoniae clinical strain 3) of 64. It also gave a Minimum inhibitory concentration ([15]; Streptococcus pneumoniae clinical strain 4) of 128 and a Minimum inhibitory concentration ([15]; Streptococcus pneumoniae clinical strain 5) of 64.
